Experimental data from US20260217701A1, “SELECTIVE BET INHIBITORS AND USES THEREOF” (Tay Therapeutics Limited, priority 2022, published 2026).

Tested on: imiquimod-induced psoriasis
Test: Imiquimod-induced psoriasis model
Format: in vivo, mice
Conditions: for Mean scores of the presence of erythema on the skin of animals at the area of induction of psoriasis / Mean scores of the presence of induration on the skin of animals at the area of induction of psoriasis / Mean scores of the presence of peeling on the skin of animals at the area of induction of psoriasis: mean ± SEM; for Mean PASI Scores in IMI-Psoriasis Model: mice
How it was run: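 Mice given topical imiquimod (5% cream) daily on depilated backs Days 1–14; Compound A in 5% DMSO/40% PEG-400/55% saline from Day 8, clobetasol topical as reference. Daily PASI (erythema, induration, peeling, each 0–4, summed) Days 8–15; spleen weight, open-field behaviour, serum IL-1B, IL-6, IL-17, TNF-α, IL-22, IL-23 at Day 15.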

[1] = IMI + 10 mg/kg, D8 (before start of treatment)

Cn1cc(-c2ccccc2)c(-c2cn(C)c(=O)c3[nH]c(-c4cnn(C(F)(F)F)c4)cc23)cc1=O [Compound A, 6-methyl-4-(1-methyl-2-oxo-5-phenyl-1,2-dihydropyridin-4-yl)-2-(1-(trifluoromethyl)-1H-pyrazol-4-yl)-1,6-dihydro-7H-pyrrolo[2,3-c]pyridin-7-one]
Mean scores of the presence of erythema on the skin of animals at the area of induction of psoriasis (IMI + 3 mg/kg, D15): 0.0 ± 0.0 | Mean scores of the presence of induration on the skin of animals at the area of induction of psoriasis (IMI + 3 mg/kg, D15): 0.1 ± 0.1 | Mean scores of the presence of peeling on the skin of animals at the area of induction of psoriasis (IMI + 3 mg/kg, D15): 0.3 ± 0.2 | Mean scores of the presence of erythema on the skin of animals at the area of induction of psoriasis [1]: 2.3 ± 0.2 | Mean scores of the presence of induration on the skin of animals at the area of induction of psoriasis [1]: 2.6 ± 0.2 | Mean scores of the presence of peeling on the skin of animals at the area of induction of psoriasis [1]: 2.3 ± 0.3 | Mean scores of the presence of erythema on the skin of animals at the area of induction of psoriasis (IMI + 10 mg/kg, D9): 1.2 ± 0.2 | Mean scores of the presence of induration on the skin of animals at the area of induction of psoriasis (IMI + 10 mg/kg, D9): 2.0 ± 0.3 | Mean scores of the presence of peeling on the skin of animals at the area of induction of psoriasis (IMI + 10 mg/kg, D9): 2.0 ± 0.3 | Mean scores of the presence of erythema on the skin of animals at the area of induction of psoriasis (IMI + 10 mg/kg, D10): 1.0 ± 0.2 | Mean scores of the presence of induration on the skin of animals at the area of induction of psoriasis (IMI + 10 mg/kg, D10): 1.8 ± 0.2 | Mean scores of the presence of peeling on the skin of animals at the area of induction of psoriasis (IMI + 10 mg/kg, D10): 1.5 ± 0.2 | Mean scores of the presence of erythema on the skin of animals at the area of induction of psoriasis (IMI + 10 mg/kg, D11): 1.3 ± 0.2 | Mean scores of the presence of induration on the skin of animals at the area of induction of psoriasis (IMI + 10 mg/kg, D11): 1.6 ± 0.2 | Mean scores of the presence of peeling on the skin of animals at the area of induction of psoriasis (IMI + 10 mg/kg, D11): 1.5 ± 0.2 | Mean scores of the presence of erythema on the skin of animals at the area of induction of psoriasis (IMI + 10 mg/kg, D12): 0.5 ± 0.2 | Mean scores of the presence of induration on the skin of animals at the area of induction of psoriasis (IMI + 10 mg/kg, D12): 1.1 ± 0.2 | Mean scores of the presence of peeling on the skin of animals at the area of induction of psoriasis (IMI + 10 mg/kg, D12): 1.3 ± 0.2 | Mean scores of the presence of erythema on the skin of animals at the area of induction of psoriasis (IMI + 10 mg/kg, D13): 0.1 ± 0.1 | Mean scores of the presence of induration on the skin of animals at the area of induction of psoriasis (IMI + 10 mg/kg, D13): 0.8 ± 0.2 | Mean scores of the presence of peeling on the skin of animals at the area of induction of psoriasis (IMI + 10 mg/kg, D13): 0.6 ± 0.2 | Mean scores of the presence of erythema on the skin of animals at the area of induction of psoriasis (IMI + 10 mg/kg, D14): 0.0 ± 0.0 | Mean scores of the presence of induration on the skin of animals at the area of induction of psoriasis (IMI + 10 mg/kg, D14): 0.4 ± 0.2 | Mean scores of the presence of peeling on the skin of animals at the area of induction of psoriasis (IMI + 10 mg/kg, D14): 0.3 ± 0.2 | Mean scores of the presence of erythema on the skin of animals at the area of induction of psoriasis (IMI + 10 mg/kg, D15): 0.0 ± 0.0 | Mean scores of the presence of induration on the skin of animals at the area of induction of psoriasis (IMI + 10 mg/kg, D15): 0.1 ± 0.1 | Mean scores of the presence of peeling on the skin of animals at the area of induction of psoriasis (IMI + 10 mg/kg, D15): 0.3 ± 0.2 | Mean PASI Scores in IMI-Psoriasis Model (IMI + 1 mg/kg, D8 (before start of treatment)): 7.3 ± 0.3 | Mean PASI Scores in IMI-Psoriasis Model (IMI + 1 mg/kg, D9): 7.0 ± 0.4 | Mean PASI Scores in IMI-Psoriasis Model (IMI + 1 mg/kg, D10): 6.0 ± 0.4 | Mean PASI Scores in IMI-Psoriasis Model (IMI + 1 mg/kg, D11): 5.8 ± 0.5 | Mean PASI Scores in IMI-Psoriasis Model (IMI + 1 mg/kg, D12): 4.4 ± 0.3 | Mean PASI Scores in IMI-Psoriasis Model (IMI + 1 mg/kg, D13): 3.1 ± 0.4 | Mean PASI Scores in IMI-Psoriasis Model (IMI + 1 mg/kg, D14): 2.1 ± 0.3 | Mean PASI Scores in IMI-Psoriasis Model (IMI + 1 mg/kg, D15): 1.1 ± 0.2 | Mean PASI Scores in IMI-Psoriasis Model (IMI + 3 mg/kg, D8 (before start of treatment)): 6.9 ± 0.4 | Mean PASI Scores in IMI-Psoriasis Model (IMI + 3 mg/kg, D9): 6.8 ± 0.4 | Mean PASI Scores in IMI-Psoriasis Model (IMI + 3 mg/kg, D10): 5.5 ± 0.3 | Mean PASI Scores in IMI-Psoriasis Model (IMI + 3 mg/kg, D11): 4.0 ± 0.3 | Mean PASI Scores in IMI-Psoriasis Model (IMI + 3 mg/kg, D12): 3.5 ± 0.4 | Mean PASI Scores in IMI-Psoriasis Model (IMI + 3 mg/kg, D13): 1.8 ± 0.3 | Mean PASI Scores in IMI-Psoriasis Model (IMI + 3 mg/kg, D14): 0.8 ± 0.3 | Mean PASI Scores in IMI-Psoriasis Model (IMI + 3 mg/kg, D15): 0.4 ± 0.2 | Mean PASI Scores in IMI-Psoriasis Model [1]: 7.1 ± 0.4 | Mean PASI Scores in IMI-Psoriasis Model (IMI + 10 mg/kg, D9): 5.3 ± 0.6 | Mean PASI Scores in IMI-Psoriasis Model (IMI + 10 mg/kg, D10): 4.3 ± 0.5 | Mean PASI Scores in IMI-Psoriasis Model (IMI + 10 mg/kg, D11): 4.4 ± 0.4 | Mean PASI Scores in IMI-Psoriasis Model (IMI + 10 mg/kg, D12): 2.9 ± 0.5 | Mean PASI Scores in IMI-Psoriasis Model (IMI + 10 mg/kg, D13): 1.5 ± 0.2 | Mean PASI Scores in IMI-Psoriasis Model (IMI + 10 mg/kg, D14): 0.6 ± 0.2 | Mean PASI Scores in IMI-Psoriasis Model (IMI + 10 mg/kg, D15): 0.4 ± 0.2 | body weight change over the last 7 days (mouse, in vivo): weight gains | erythema, induration and peeling of the skin at the area of induction (mouse, in vivo): significantly reduced | use of enrichment (nesting) (relative to vehicle-treated psoriasis animals): restored the use of enrichment | IL-17 level, lower than vehicle (placebo) treated animals (serum, day 15): > 93%
